# Reference: the supplement of paper PMC10307832
# How the values were obtained:
# Experiment in all cases: relative viability (nuclei count vs DMSO), 5 days (fraction); higher = more cells survive
# [1] = compound: CC1=CC=C(C=C1)C(=O)CN2C3=C(CCCC3)SC2=N [Pifithrin_alpha] + O=C(CCCCCCC(=O)Nc1ccccc1)NO [Vorinostat] (partner 1 µM)
# Procedure, shortened: (§1)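 Each reported value is a median over duplicate plates. It expresses relative viability: treated-well nuclei count divided by vehicle-well nuclei count. Lung cancer cell lines in 1536-well plates were dosed by pin tool a day after seeding, alone with one drug or with a fixed anchor-drug dose plus five library-drug doses (not always all listed) in √10 steps, and nuclei were counted after 5 days.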
# Axitinib + Bortezomib = compound: CNC(=O)c1ccccc1Sc1ccc2c(/C=C/c3ccccn3)n[nH]c2c1 [Axitinib] + CC(C)C[C@H](NC(=O)[C@H](Cc1ccccc1)NC(=O)c1cnccn1)B(O)O [Bortezomib] (partner 0.002 µM)
# Procedure, shortened: as §1
# Axitinib + Alpelisib = compound: CNC(=O)c1ccccc1Sc1ccc2c(/C=C/c3ccccn3)n[nH]c2c1 [Axitinib] + Cc1nc(NC(=O)N2CCC[C@H]2C(N)=O)sc1-c1ccnc(C(C)(C)C(F)(F)F)c1 [Alpelisib] (partner 2 µM)
# Procedure, shortened: as §1
# [2] = compound: CC1=CC=C(C=C1)C(=O)CN2C3=C(CCCC3)SC2=N [Pifithrin_alpha] + NC(=O)Nc1cc(-c2cccc(F)c2)sc1C(=O)N[C@H]1CCCNC1 [AZD7762] (partner 0.2 µM)
# Procedure, shortened: as §1
Cell Line,relative viability ([1]; first compound 3.162 µM),relative viability ([1]; first compound 31.62 µM),relative viability ([1]; first compound 100 µM),relative viability (Axitinib + Bortezomib; first compound 0.005 µM),relative viability (Axitinib + Bortezomib; first compound 0.01581 µM),relative viability (Axitinib + Bortezomib; first compound 0.05 µM),relative viability (Axitinib + Bortezomib; first compound 0.1581 µM),relative viability (Axitinib + Bortezomib; first compound 0.5 µM),relative viability (Axitinib + Alpelisib; first compound 0.005 µM),relative viability (Axitinib + Alpelisib; first compound 0.01581 µM),relative viability (Axitinib + Alpelisib; first compound 0.05 µM),relative viability (Axitinib + Alpelisib; first compound 0.1581 µM),relative viability (Axitinib + Alpelisib; first compound 0.5 µM),relative viability ([2]; first compound 1 µM),relative viability ([2]; first compound 3.162 µM),relative viability ([2]; first compound 10 µM),relative viability ([2]; first compound 100 µM),relative viability ([1]; first compound 1 µM),relative viability ([1]; first compound 10 µM),relative viability ([2]; first compound 31.62 µM)
IA-LM,1.16,0.913,0.907,1.17,0.775,0.899,0.846,0.728,0.79,0.883,0.733,0.761,0.619,–,–,–,–,–,–,–
LK-2,0.257,0.256,0.353,–,–,–,–,–,1.02,0.853,0.838,0.902,0.828,0.301,0.571,0.58,0.346,0.29,0.255,–
NCI-H358,0.708,0.344,0.545,–,–,–,–,–,1.03,0.898,0.806,0.738,1.05,0.582,0.489,0.496,0.413,0.733,0.867,0.427
NCI-H520,0.954,0.678,0.772,0.685,0.698,0.474,0.5,0.705,0.923,0.951,0.91,0.784,0.899,–,–,–,–,0.641,0.716,–
NCI-H522,0.992,0.759,0.919,–,–,–,–,–,–,–,–,–,–,0.835,1.11,0.851,0.802,0.777,0.993,0.799
NCI-H661,0.805,0.662,0.771,0.93,0.83,0.648,0.785,0.842,0.613,0.509,1.02,0.862,0.511,–,–,–,–,0.8,0.788,–
NCI-H1299,–,–,–,1.05,0.989,1.07,0.976,1.06,0.987,1.01,1.06,1.06,1.1,–,–,–,–,–,–,–
NCI-H1395,0.662,–,0.661,–,–,–,–,–,1.22,1.02,1.21,1.07,1.18,–,0.385,0.397,0.361,–,0.723,–
NCI-H1563,–,–,–,0.908,0.827,0.846,0.876,0.763,1.04,0.916,0.951,0.892,0.986,–,–,–,–,–,–,–
NCI-H1648,0.473,0.347,0.421,–,–,–,–,–,–,–,–,–,–,0.607,0.959,0.836,0.504,0.523,0.378,0.582
NCI-H1650,0.596,0.382,0.373,0.209,0.208,0.191,0.195,0.22,–,–,–,–,–,–,–,–,–,0.527,0.332,–
NCI-H1703,–,–,–,0.353,0.228,0.161,0.212,0.207,0.264,0.214,0.186,0.171,0.243,–,0.139,0.101,0.109,–,–,0.182
NCI-H1792,–,–,–,1,0.982,0.952,0.953,0.894,0.797,0.715,0.671,0.699,0.683,0.656,0.508,0.453,0.494,–,–,–
NCI-H1793,0.571,0.753,0.46,–,–,–,–,–,0.667,0.701,0.722,0.73,0.676,0.605,0.402,0.441,0.255,0.674,0.655,0.323
NCI-H1944,0.572,0.351,0.395,–,–,–,–,–,0.797,0.827,0.855,0.854,0.868,0.514,0.574,0.563,0.468,0.503,0.505,0.529
NCI-H2009,0.715,0.399,0.57,1.1,1.11,1.04,1.04,1.16,1.21,1.2,1.13,1.2,1.29,–,–,–,–,0.697,0.601,–
NCI-H2023,0.577,0.334,0.464,0.968,1,1.03,0.834,1.02,0.696,0.615,0.551,0.54,0.682,–,–,–,–,0.726,0.545,–
NCI-H2170,0.873,0.681,0.842,–,–,–,–,–,0.849,0.787,0.817,0.892,1.03,0.899,0.91,0.733,0.783,0.791,0.837,0.613
NCI-H2228,0.663,0.387,0.374,1.31,0.829,0.886,0.954,1.07,0.884,0.699,0.798,0.677,0.964,–,–,–,–,0.831,0.721,–
NCI-H2342,0.632,0.815,0.741,–,–,–,–,–,–,–,–,–,–,0.421,0.541,0.51,0.492,0.746,0.769,0.525
SK-LU-1,0.862,0.676,0.75,1.29,1.2,1.43,1.08,1.08,1.11,1.32,1.05,1.06,1.63,–,–,–,–,0.94,0.774,–
SK-MES-1,0.95,0.591,0.852,–,–,–,–,–,0.981,0.974,1.04,0.943,1.12,–,–,–,–,1.01,0.959,–
SW 900,0.277,0.36,0.377,–,–,–,–,–,–,–,–,–,–,0.567,0.497,0.622,0.424,0.527,0.432,0.41
SW 1573,0.787,0.498,0.82,1.19,1.05,0.944,0.923,0.994,0.766,0.954,0.783,0.774,0.738,–,–,–,–,–,0.719,–
UMC-11,0.382,0.245,0.256,0.977,0.722,0.65,0.637,0.589,1.08,0.871,0.959,1.03,1.16,–,–,–,–,0.342,0.343,–
